Test results reported in patent US10501511B2, “Low molecular polypeptide for preventing and treating inflammation and use thereof” (SHANGHAI FIRST PEOPLE'S HOSPITAL, priority 2013, dated 2019).
Each block holds one compound with its values, some of them ahead of it. Where a SMILES comes first, the peptide text is derived from it.

How the values were obtained:
[1] = test system: IL-6 in LPS-induced RAW264.7 cells; test: IL-6 concentration (ELISA) in supernatant of LPS-induced RAW264.7 cells; type: cell-based, murine; conditions: for concentration of IL-6 in cell supernatant: LPS group 2650.00±106.07, control 213.00±15.56; for IL-6: Samples 10 μM, Control (LPS) 2713.95
Experimental: (§1) 1.1 Experimental cell strain and Materials: murine peritoneal macrophage cell strain RAW264.7 were purchased from the Cell Bank of Shanghai Institutes for Biological Sciences, CAS; DMEM high glucose medium was purchased from GIBCO; mouse tumor necrosis factor-α (TNF-α) and interleukin-6 (IL-6) enzyme-linked immunosorbent assay (ELISA) kits were purchased from R & D company, US.
(§2) 1.2 Model establishment and Intervention test: RAW264.7 cells were cultured in high glucose DMEM medium containing 10% fetal bovine serum (FBS), and 100 U/ml double antibiotics of penicillin and streptomycin, and placed in 37° C., 5% CO2 incubator for amplification. Cells at Logarithmic growth phase were seeded in 24-well plates at 2.5×10^5/ml. When adhered cells grew well and were cultured to 80-90% of confluence, the medium was replaced by a DMEM medium without 10% FBS for serum-starved culture for 24 hours. RAW264.7 cells were randomly divided into control group, LPS group, LPS+H-RN group with sextuplicate wells for each group. LPS group and LPS+H-RN group were added with 500 μl of different concentrations of H-RN (1, 10, 100 μM) and LPS (100 ng/ml) and the control group was added with an equal volume of DMEM medium, each group was placed in 37° C., 5% CO2 incubator and routinely cultured. Cell supernatants were collected after 24 hours.
(§3) The experiment data was shown as x±s. SPSS 11.0 statistical package was used for statistic analysis and one-way ANOVA was used to compare TNF-α and IL-6 level in supernatant between the groups, and P<0.05 represents statistical significance.

[2] = test system: Rat Endotoxin-induced Uveitis (EIU) model; test: Count of inflammatory cell infiltration in aqueous humor of EIU rats; type: in vivo, Wistar rats; conditions: 24 hours, LPS group 164.20±142.7
Experimental: (§4) 1.1 Experiment animals and materials: healthy male Wistar rats, 140-180 g, 8-10 weeks old, were purchased from Animal Center of Chinese Academy of Medical Sciences; Lipopolysaccharides (LPS), derived from Escherichia coli, was purchased from SIGMA-Aldrich Corporation (U.S.A).
(§5) 1.2 Model establishment and Intervention test: Wistar rats were randomly divided into six groups (9-15 rats for each group) which were LPS group, LPS+1 μg/μl H-RN intervention group, LPS+5 μg/μl H-RN group, LPS+10 μg/μl H-RN group, LPS+10 μg/μl DXM and normal control group (PBS) respectively. 200 μg LPS (2 mg/ml, 100 μl, dissolved in sterile saline) was subcutaneously injected into right foot pad of rats, thereby establishing EIU model. The normal control group was subcutaneously injected with 100 μl sterile saline into the right foot pad of rats. In LPS group, LPS+H-RN (1, 5, 10 μg/μl) intervention group and LPS+10 μg/μl DXM group, each rat was subcutaneously injected with 200 μg LPS into the right foot pad, meanwhile, PBS 10 μl, H-RN PBS solution (1, 5 and 10 μg/μl) 10 μl and DXM PBS solution (10 μg/μl) 10 μl were injected into vitreous chamber respectively.
1.4 Quantitative count for inflammatory cell infiltration in rat aqueous humor: 24 hours after LPS and drug intervention, rats were sacrificed in excess of anesthesia. Under an operating microscope, aqueous humor (30-40 μl/binoculus) was collected by anterior chamber paracentesis with a 30-gauge microsyringe at 1 mm from rat corneal limbus. Aqueous humor samples were diluted with an equal amount of trypan blue dye liquid. Cells in aqueous humor were counted using a hemocytometer under light microscopy by two independent technicians for each region (equivalent with 0.1 μl). The average of the four regions was the number of cells contained in 1 μl aqueous humor.
(§6) The experiment data was shown as x±s. A one-way ANOVA was used to compare the change of inflammatory cell infiltration of rats in each group. P<0.05 represents statistical significance.

[3] = test system: Rat Endotoxin-induced Uveitis (EIU) model; test: Clinical manifestation score in rat endotoxin-induced uveitis (EIU) model; type: in vivo, Wistar rats; conditions: 10 μl into vitreous chamber, 24 hours, score 0-4
Experimental: as §4, §5
1.3 Qualitative observation for Clinical manifestations of EIU rats: 24 hours after drug and LPS intervention, rats were observed by biological microscope. The clinical manifestations of rats were evaluated and scored by an independent observer according to the method of Behar-Cohen et al. The severity of EIU was represented by 0-4 scores: 0: no inflammation; 1: mild dilation in conjunctiva and iris vessel; 2: moderate dilation in conjunctiva and iris vessel with anterior chamber flare; 3: severe iris hyperemia with severe anterior chamber flare; 4: anterior chamber cellulose-like exudation, posterior synechia, miosis and hypopyon in addition to 3 points.
as §6

[4] = test system: TNF-α in LPS-induced RAW264.7 cells; test: TNF-α concentration (ELISA) in supernatant of LPS-induced RAW264.7 cells; type: cell-based, murine; conditions: for concentration of TNF-α in cell supernatant: LPS group 1333.00±476.59, control 561.00±25.65; for TNF-α: Samples 10 μM, Control (LPS) 1425.60
Experimental: as §1, §2, §3

[5] = Water solubility of synthesized polypeptide powder; type: physicochemical; conditions: white powder
[6] = Cytotoxicity assay (MTS colorimetric method), relative growth rate; type: cell-based, murine; conditions: mouse, RAW264.7 macrophage cells, 24 hours, MTS, blank 100.05±3.95%, read-out: relative growth rate (RGR) of cells
Experimental: (§7) 1.1 Experimental cell strain and Materials: murine peritoneal macrophage cell line RAW264.7 were purchased from the Cell Bank of Shanghai Institutes for Biological Sciences, CAS; DMEM high glucose medium were purchased from GIBCO; MTS were purchased from Promega, prepared into 300 mmol/L in PBS (pH 6.0) and stored at −20° C. in darkness.
(§8) 1.2 Model establishment and Intervention test: RAW264.7 cells were cultured in high glucose DMEM medium containing 10% fetal bovine serum (FBS), and 100 U/ml double antibiotics of penicillin and streptomycin, and placed in 37° C., 5% CO2 incubator for amplification. Cells at logarithmic growth phase were seeded in 96-well plates at 1×10^5/ml. When adhered cells grew well and were cultured to 80-90% of confluence, the medium was replaced by a DMEM medium without 10% FBS for serum-starved culture for 24 hours.
(§9) 1.3 Cytotoxicity assay (MTS colorimetric method): After the cells were cultured for 24 hours in serum starvation, different concentrations of H-RN (0.1, 1, 10 μM, 100 μM, 1 mM, 100 μl) were added into each well with sextuplicate wells for each concentration. The blank control group was added with an equal volume of DMEM medium. The plates were placed in 37° C., 5% CO2 incubator and cultured for 24 hours, added with 20 μl of MTS solution to each well and cultured for another 4 hours. The absorbance of each well was measured by an enzyme-linked immunosorbent detector in 490 nm, and the relative growth rate (RGR) of cells was calculated. Formula: RGR=A value of experimental group/A value of control group×100%.
(§10) 1.5. Statistic analysis: The experiment data was shown as x±s. SPSS 11.0 statistical package was used for statistic analysis and one-way ANOVA was used to compare RGR of cells between the groups, and P<0.05 represents statistical significance.

RAW264.7 cells = test: as above; type: cell-based, murine; conditions: concentration range of 0.1 μm-1 mM
Experimental: as §7, §8, §9, §10

[7] = LPS + 10 μg/μl peptide intravitreal
[8] = LPS + 10 μg/μl peptide, LPS group 3.56±0.51
[9] = 1 μM peptide + LPS 100 ng/ml, 24 hours, P>0.05
[10] = 10 μM peptide + LPS 100 ng/ml, 24 hours
[11] = 100 μM peptide + LPS 100 ng/ml, 24 hours

Compound: GPERWRGPNGE [H-GP, reference compound]
IL-6 in cell supernatant compared with LPS group ([1]; 100 μM peptide, p>0.05): no significant difference
count of inflammatory cells in aqueous humor [2, 7]: 134.66±98.23 ×10^5 cells/ml
EIU clinical score [3, 8]: 3.32±0.61
TNF-α in cell supernatant compared with LPS group ([4]; 100 μM peptide, p>0.05): no significant difference

water solubility [5]: good water solubility
Compound: N=C(N)NCCC[C@H](NC(=O)[C@@H]1CCCN1C(=O)[C@H](CC(N)=O)NC(=O)[C@@H](N)CCCNC(=N)N)C(=O)NCC(=O)N[C@@H](CCC(=O)O)C(=O)N[C@@H](CCC(=O)O)C(=O)NCC(=O)NCC(=O)N1CCC[C@H]1C(=O)N[C@@H](Cc1c[nH]c2ccccc12)C(=O)O [H-RN, RNPRGEEGGPW] (H-RNPRGEEGGPW-OH; N-terminus assumed)
IL-6 in cell supernatant compared with LPS group [1, 9]: no significant difference
concentration of IL-6 in cell supernatant [1, 10]: 1385.00 ± 101.54 pg/mL
concentration of IL-6 in cell supernatant [1, 11]: 1355.00 ± 134.35 pg/mL
count of inflammatory cells in aqueous humor ([2]; LPS + 1 μg/μl peptide intravitreal): 49.14±40.84 ×10^5 cells/ml
count of inflammatory cells in aqueous humor ([2]; LPS + 5 μg/μl peptide intravitreal): 40.40±31.34 ×10^5 cells/ml
count of inflammatory cells in aqueous humor [2, 7]: 37.35±21.44 ×10^5 cells/ml
EIU clinical score ([3]; LPS + 1 μg/μl H-RN, LPS group 3.56±0.51, normal control 0.50±0.54): 2.42±0.53
EIU clinical score ([3]; LPS + 5 μg/μl peptide, LPS group 3.56±0.51): 2.12±0.64
EIU clinical score [3, 8]: 1.92±0.27
TNF-α in cell supernatant compared with LPS group [4, 9]: no significant difference
concentration of TNF-α in cell supernatant [4, 10]: 737.00 ± 155.56 pg/mL
concentration of TNF-α in cell supernatant [4, 11]: 718.00 ± 79.19 pg/mL
viability at 24 h, 0.1 µM ([6]; 0.1 μM): 96.9 ± 3.64%
viability at 24 h, 1 µM ([6]; 1 μM): 100 ± 2.67%
viability at 24 h, 10 µM ([6]; 10 μM): 98.3 ± 3.91%
viability at 24 h, 100 µM ([6]; 100 μM): 101 ± 4%
viability at 24 h, 1000 µM ([6]; 1 mM): 95.8 ± 4.92%
toxic effects on cells (RAW264.7 cells): no significant toxic effects

Compound: RNPRPEEGGAY [Derived polypeptide 3, polypeptide derived from H-RN]
IL-6 [1]: 1402.54 pg/mL
TNF-α [4]: 792.31 pg/mL

Compound: QNPRGDEPGPW [Derived polypeptide 4, polypeptide derived from H-RN]
IL-6 [1]: 1411.87 pg/mL
TNF-α [4]: 765.92 pg/mL

Compound: RNPKGEEGGPW [Derived polypeptide 1, polypeptide derived from H-RN]
IL-6 [1]: 1365.29 pg/mL
TNF-α [4]: 724.98 pg/mL

Compound: NPRGEEGGP [Derived polypeptide 5, polypeptide derived from H-RN]
IL-6 [1]: 1395.34 pg/mL
TNF-α [4]: 745.70 pg/mL

Compound: KQPRGEEGGPW [Derived polypeptide 2, polypeptide derived from H-RN]
IL-6 [1]: 1356.46 pg/mL
TNF-α [4]: 701.63 pg/mL

Compound: RNPRGEEGGPWCF [Derived polypeptide 6, polypeptide derived from H-RN]
IL-6 [1]: 1369.41 pg/mL
TNF-α [4]: 696.77 pg/mL
